Measurements published in paper PMC9106797, “Formation and Identification of a 5-(Hydroxymethyl)-2-Furfural-Zingerone Condensate and Its Cytotoxicity in Caco-2 Cells” (Frontiers in Nutrition, 2022).
Values joined by “and” are separate entries in the source; they are usually repeats but may differ in a detail not shown here. Identical values can stand only once.

Columns and labels:
[1] = Cell viability assay (CCK-8); type: cell-based; conditions: human, Caco-2 cells, read-out: IC50, cytotoxicity against Caco-2 cells; for IC50 at 24 h: 24 h incubation; for IC50 at 48 h: 48 h incubation
Description: The Caco-2 cell line (ATCC HTB-37) was obtained from the American Type Culture Collection (Rockville, MD, USA). Cells were cultivated by the method of Kosińska-Cagnazzo et al. ([30]) with slight modifications. Specifically, α-MEM medium supplemented with 10% FBS, 1% penicillin/streptomycin, and 1% NEAA was used to cultivate Caco-2 cells at 37°C and 5% (v/v) CO2 atmosphere. When the cells reached 80–90% confluence, they were detached with 0.25% trypsin-EDTA and further sub-cultured on fresh growth medium. Cells between passages 30 and 35 were used.
Cell viability was measured by the CCK-8 method as described by Zhao et al. ([31]) with modifications. Briefly, Caco-2 cells at a density of 2.5 × 10^4 cells/well were seeded into 96-well plates and maintained at 37°C under a humidified atmosphere containing 5% CO2 and 95% air for 24 h. Subsequently, the origin culture medium was removed, and different concentrations (2, 4, 8, 16, 32, and 64 mM) of HMZ and HMF were added. Three duplicate wells were set for each concentration. The cells were further incubated for 24 and 48 h, respectively. Then, 10 μL of CCK-8 solution was added into each well for 2 h, and the absorbance was read at 450 nm on a microplate reader (Multiskan, Thermo, USA).

[2] = In vitro simulated digestion (mouth, gastric, intestinal stages), HPLC; type: in vitro ADME; conditions: for decrease of HMZ content after digestion: 37°C
Description: The adduct was subjected to in vitro simulated digestion at three stages, namely, the mouth, gastric, and intestinal stages, to evaluate its stability ([28], [29]). Briefly, HMZ (2 mg) was dissolved in DMSO (200 μL), diluted with ultra-pure water to the final concentration of 0.5 mg/mL, and then mixed with 6 mL of SSF in a flask. The mixture was magnetically stirred at 100 r/min for 2 min at 37°C to mimic saliva digestion. Afterward, 10 mL of SGF was added to simulate the gastric phase, and the mixture was reacted for 2 h under the same condition. Subsequently, 20 mL of SIF was added for the simulation of intestinal digestion for another 2 h. Samples (100 μL) were withdrawn at the end of each stage of the digestion process for HPLC analysis. Each digestion process was repeated in triplicate, and the content of HMZ was calculated by referring to the calibration curve.

[3] = system: Caco-2 cells; assay: Absorption of HMZ in Caco-2 cells (HPLC of treated solution); type: in vitro ADME; conditions: 2 h, 37°C
Description: HMZ absorption was evaluated according to de Oliveira et al. with slight modifications ([32]). Briefly, Caco-2 cells were inoculated in 6-well plates at the density of 2 × 10^4 cells/well (2 mL) and cultured until 90% confluence at 37°C with 5% CO2. Then, the cells were washed thrice with 1 mL of HBSS. Another 1 mL of HBSS was added for further culture for 30 min. Ten microliters of HMZ solution (pH 7.4) at concentrations of 1–100 μM were added separately and cultivated for 2 h to allow the adduct solution to be absorbed by cells under certain condition (37°C, 5% CO2/95% air). The treated solution was transferred into Eppendorf tubes for HPLC analysis. The control of each sample under different concentrations was the respective sample without incubation, and each of the absorption rate of the adduct by Caco-2 cells was calculated as follows:
(1) Absorption rate (%) =S1−S2/S1× 100%
where S1 is the peak area of the control, and S2 is the peak area of the sample incubated for 2 h.

[4] = Effect of reaction temperature on HMZ amount (one-factor-at-a-time, HPLC); type: physicochemical; conditions: temperature over 50°C, 3 h
Description: A one-factor-at-a-time design was applied to estimate the effects of different reaction parameters on HMF elimination by ZGR, as well as the adduct formation between HMF and ZGR. ZGR/HMF in the molar ratio of 2: 1 was mixed in a three-necked flask and incubated at 40°C for different durations (0.5, 1.0, 1.5, 2.0, 2.5, and 3.0 h) to investigate the effect of reaction time. ZGR/HMF in the molar ratio of 2: 1 was mixed and reacted for 3 h at different temperature levels (20, 30, 40, 50, 60, and 70°C) to study the effect of temperature. In addition, temperature and reaction duration were kept constant at 40°C and 3 h, respectively, to evaluate the effect of different ZGR/HMF molar ratios (4: 1, 3: 1, 2: 1, 1: 1, and 1: 2). At the end of each reaction, 30 μL of the aqueous reaction mixture was diluted with methanol to a final volume of 500 μL for HPLC analysis. HMF and HMZ were quantified by comparing their peak areas to each standard curve.

[5] = system: FVB/N mice; set-up: method as in PMID 22349055; conditions: FVB/N mice, 31.25, 62.5, 125 and 250 mg SMF/kg; cited from earlier work

Row | decrease of HMZ content after digestion ([2]; after SGF (simulated gastric fluid), further 2 h) | decrease of HMZ content after digestion ([2]; after SIF (simulated intestinal fluid), further 2 h) | decrease of HMZ content after digestion ([2]; after SSF (simulated salivary fluid), 2 min) | stability in simulated in vitro digestion ([2]; three digestion conditions) | absorption ([3]; HMZ 1 μM) | absorption rate ([3]; HMZ 1 μM) | absorption ([3]; HMZ 4 μM) | absorption rate ([3]; HMZ 4 μM) | absorption ([3]; HMZ 20 μM) | absorption rate ([3]; HMZ 20 μM) | absorption ([3]; HMZ 100 μM) | absorption rate ([3]; HMZ 100 μM) | thermal stability in the reaction mixture [4] | SMILES | IC50 at 24 h [1] | IC50 at 48 h [1] | liver toxicity [5]
1 | – | – | – | – | – | – | – | – | – | – | – | – | – | O=Cc1ccc(CO)o1 [HMF, 5-(Hydroxymethyl)-2-furfural] | 35.4 ± 4.03 mM | 19.2 ± 2.1 mM | –
2 | 14.19% | 24.06% | 7.14% | moderate level | 0.61 ± 0.75 ×10^-5 μmol | 60.74% and 60.74 ± 7.51% | 2.85 ± 0.03 ×10^-5 μmol | 71.38% and 71.38 ± 0.80% | 11.22 ± 0.03 ×10^-5 μmol | 56.11% and 56.11 ± 1.85% | 34.71 ± 0.17 ×10^-5 μmol | 34.71% and 34.71 ± 1.68% | appeared to degrade | COc1cc(CCC(=O)/C=C/c2ccc(CO)o2)ccc1O [HMZ] | 41.5 ± 5.33 mM | 25.4 ± 3.12 mM | –
3 | – | – | – | – | – | – | – | – | – | – | – | – | – | O=Cc1ccc(COS(=O)(=O)O)o1 [SMF, 5-sulfo-oxymethylfurfural] | – | – | hepatic lesions
